Source: article PMC9300616, “Grape seed proanthocyanidin extract inhibits DNA and protein damage and labile iron, enzyme, and cancer cell activities” (Scientific Reports, 2022)

Legend:
[1] = tested on: ferritin; assay: Labile iron inhibition assay (superoxide-dependent iron release from ferritin); assay type: biochemical; details: for Labile Iron IC50: inhibition of iron release from ferritin, mean ± SD of three experiments
Procedure: The mixture was illuminated using a fluorescent lamp for 90 min at 25 °C. The labile iron content was measured as described by Ibrahim et al.[22].

[2] = molecular target: mushroom tyrosinase; assay: Tyrosinase inhibition assay; assay type: biochemical; details: mean ± SD of three experiments
Procedure: Tyrosinase inhibitory activity was measured as described by Habib et al.[17]. […] After 10 min of incubation at 37 °C, 1 mL of mushroom tyrosinase (50 units/mL, dissolved in 0.2 M phosphate buffer, pH 6.8), was added to the mixture. The absorbance was recorded after 10 min at 475 nm. A 50% ethanol solution was used as a blank, and 1 mL of deionized water was used as the control. % Tyrosinase inhibitory activity was calculated according to Eq. (1) as described above.

[3] = ABTS free radical-scavenging assay; assay type: biochemical; details: for ABTS IC50: concentration that scavenges free radicals by 50%, mean ± SD of three experiments
Procedure: Determination was conducted based on the method reported by Platat et al.[62]. The results were expressed as the percentage of ABTS^· radical inhibition calculated using Eq. (1) as described above.

[4] = tested on: Bovine Serum Albumin (BSA); assay: Protein oxidation induced by AAPH, SDS-PAGE; details: for Fragmentation of BSA reduced by: AAPH 30 min
Procedure: Alkylperoxyl radical-induced oxidation of Bovine Serum Albumin (BSA) was performed as described by Habib et al.[17]. In brief, BSA (0.5 mg mL^−1) was incubated with AAPH (20 mM) in the presence or absence of different extracts in a shaking water bath at 37 °C for 30 min. A protein sample without AAPH was used as control. After treatment, protein samples were mixed with loading buffer and heated at 100 °C for 5 min. An aliquot of each sample was loaded and separated using 10% SDS-PAGE under reducing conditions. The free stained gels were imaged using a ChemiDoc MV gel documentation system (Bio-Rad, Hercules, CA, USA). To determine the amount of protein damage, band intensity was determined using the Image Lab 4.1 software (version 6.1.0 build 7) (Bio-Rad, Hercules, CA, USA). The optical density of each band was determined and standardized for the control group.

[5] = molecular target: T1, Porcine α-amylase (Sus scrofa, UniProt P00690); assay: Porcine α-amylase inhibition assay; assay type: biochemical; details: mean ± SD of three experiments
T1 sequence (P00690 16-511): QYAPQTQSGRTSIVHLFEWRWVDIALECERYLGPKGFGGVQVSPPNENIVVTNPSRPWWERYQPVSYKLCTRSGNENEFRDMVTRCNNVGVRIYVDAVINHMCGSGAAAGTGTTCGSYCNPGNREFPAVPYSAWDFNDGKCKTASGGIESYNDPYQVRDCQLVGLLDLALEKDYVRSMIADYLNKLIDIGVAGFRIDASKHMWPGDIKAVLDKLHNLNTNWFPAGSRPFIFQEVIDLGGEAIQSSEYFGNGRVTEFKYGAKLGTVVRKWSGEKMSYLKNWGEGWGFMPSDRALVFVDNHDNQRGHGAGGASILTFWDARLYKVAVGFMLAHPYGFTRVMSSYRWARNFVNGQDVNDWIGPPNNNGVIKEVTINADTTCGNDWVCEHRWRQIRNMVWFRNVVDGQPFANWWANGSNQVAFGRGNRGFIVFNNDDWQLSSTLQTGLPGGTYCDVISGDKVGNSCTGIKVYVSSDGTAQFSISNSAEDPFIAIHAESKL
Procedure: Inhibition of porcine α-amylase activity was described by Habib et al.[17]. […] For 10 min, the mixture was incubated at 25 °C, and then 50 µL 1% starch solution in 20 mM sodium phosphate buffer at pH 6.9 with 6 mM NaCl was added. The mixture was incubated at 25 °C, followed by addition of a color reagent (1 mL dinitrosalicylic acid). To stop the reaction, the mixture was kept for 10 min in a water bath at 100 °C and then cooled to 25 °C. 1 mL of deionized water was added, and the absorbance was read at 540 nm using a 96-well microplate reader. Inhibition of porcine α-amylase was estimated using Eq. (1) as described above.

[6] = tested on: pBR322 plasmid DNA; assay: DNA damage by free radicals (H2O2 + UV), agarose gel; assay type: biochemical; details: for supercoiled (SC) form of pBR322 DNA: H2O2 + UV; for DNA damage inhibition IC50: pBR322 DNA + H2O2 + UV, mean ± SD of three experiments
Procedure: The assay was performed using the method described by Habib et al.[17]. Briefly, 6 μL of 30% H2O2 was added to an Eppendorf tube with a volume of 20 μL containing 6 μL of PBS buffer, 0.2 μg of pBR322 DNA in 2 μL of 50 mM PBS (pH 7.4), and 4 μL of samples. The reactions were initiated by UV irradiation and sustained for 5 min on the surface of a UV transilluminator TFM-26 (UVP, Upland, CA, USA), with an intensity of […] at 312 nm at room temperature. At the end of the reaction, the samples were run on 0.8% agarose. […] Vitamin C and Rutin were used as positive controls.

[7] = DPPH free radical-scavenging assay; assay type: biochemical; details: concentration that scavenges free radicals by 50%; mean ± SD of three experiments
Procedure: The estimation was based on the method reported by Habib et al.[61]. The results were expressed as the percentage inhibition of the DPPH^· radical. The percentage of inhibition of DPPH^· radical was calculated using the following equation:1 %ofDPPH^·inhibition=Abscontrol-Abssample/Abscontrol×100
where Abs control is the absorbance of DPPH^· solution without the tested sample.

## O=C(O)c1cc(O)c(O)c(O)c1 [Gallic acid]
[1]; at 10 μg
  percentage inhibition of iron release from ferritin: 50.68 ± 0.18%
[1]; at 50 μg
  percentage inhibition of iron release from ferritin: 59.22 ± 0.81%
[1]; at 100 μg
  percentage inhibition of iron release from ferritin: 68.55 ± 0.38%
[1]
  Labile Iron IC50: 4.86 ± 0.23 µg/mL

## C[C@@H]1O[C@@H](OC[C@H]2O[C@@H](Oc3c(-c4ccc(O)c(O)c4)oc4cc(O)cc(O)c4c3=O)[C@H](O)[C@@H](O)[C@@H]2O)[C@H](O)[C@H](O)[C@H]1O [Rutin]
[1]; at 10 μg
  percentage inhibition of iron release from ferritin: 85.32 ± 0.56%
[1]; at 50 μg
  percentage inhibition of iron release from ferritin: 90.30 ± 0.01%
[1]; at 100 μg
  percentage inhibition of iron release from ferritin: 96.65 ± 0.01%
[1]
  Labile Iron IC50: 0.08 ± 0.14 µg/mL
[2]
  Tyrosinase IC50: 72.08 ± 0.54 µg/mL
[3]; at 0.1 mg/mL
  ABTS scavenging: 48.10 ± 0.07%
[3]; at 5 mg/mL
  ABTS scavenging: 90.13 ± 0.04%
[3]
  ABTS IC50: 6.31 ± 1.00 µg/mL
[4]; at 0.1 mg/mL
  Fragmentation of BSA reduced by: 94.12 ± 0.20%
[4]; at 5 mg/mL
  Fragmentation of BSA reduced by: 99.10 ± 0.24%
[4]; BSA + AAPH, mean ± SD of three experiments
  BSA damage inhibition IC50: 4.42 ± 0.24 µg/mL
[5]
  IC50: 130 µM
[6]; at 0.1 mg/mL
  supercoiled (SC) form of pBR322 DNA: 13.50 ± 0.52%
[6]; at 5 mg/mL
  supercoiled (SC) form of pBR322 DNA: 66.50 ± 0.57%
[6]
  DNA damage inhibition IC50: 2.45 ± 0.13 µg/mL

## Cc1c(C)c2c(c(C)c1O)CCC(C)(C(=O)O)O2 (centres unmarked) [Trolox]
[1]; at 10 μg
  percentage inhibition of iron release from ferritin: 39.33 ± 0.54%
[1]; at 50 μg
  percentage inhibition of iron release from ferritin: 84.79 ± 3.00%
[1]; at 100 μg
  percentage inhibition of iron release from ferritin: 87.87 ± 1.87%
[1]
  Labile Iron IC50: 12.57 ± 0.64 µg/mL

## O=C1O[C@H]([C@@H](O)CO)C(O)=C1O [VC, vitamin C]
[2]
  Tyrosinase IC50: 42.74 ± 0.23 µg/mL
[7]
  DPPH IC50: 880 ± 0.52 µg/mL
[3]; at 0.1 mg/mL
  ABTS scavenging: 88.29 ± 0.22%
[3]; at 5 mg/mL
  ABTS scavenging: 92.69 ± 0.32%
[3]
  ABTS IC50: 0.68 ± 0.12 µg/mL
[5]
  Porcine α-amylase IC50: 87.24 ± 0.71 µg/mL
[6]; at 0.1 mg/mL
  supercoiled (SC) form of pBR322 DNA: 11.50 ± 0.63%
[6]; at 5 mg/mL
  supercoiled (SC) form of pBR322 DNA: 19.10 ± 0.91%
[6]
  DNA damage inhibition IC50: 42.03 ± 1.06 µg/mL
